Measurements reported in patent US20260273072A1, “NOVEL PLK1 DEGRADATION INDUCING COMPOUND” (UPPTHERA, INC., priority 2023, published 2026).

Experiments:
Assay type in all cases: cell-based
MRC-5 cell line = assay: Cell viability assay for MRC-5 cell line (EZ-Cytox); settings: Homo sapiens, MRC5, 120 h; MRC-5 normal cell line, 5 days, 10000 nM to 1.52 nM; read-out: Activity: IC50 value, cell viability, MRC-5 cell line (Exemplary Compounds)
Description: 4. Cell Viability Assay for MRC-5 Cell Line
(1) Culture of MRC-5 Cell Line
The MRC-5 cell line was purchased from KCLB. Passage of cultured cells was maintained within P15.
(2) Treatment of Compounds of the Present Invention
Then, it was cultured in 37° C. CO2 incubator (Thermo Fisher Scientific) for 5 days.
(3) Cytotoxicity Experiment
CO2 incubator for 4 hours.

NCI-H526 cell line = assay: Cell viability assay for NCI-H526 cell line (EZ-Cytox); settings: Homo sapiens, NCI-H526, 120 h; H526 cells, 5 days, 3000 nM to 0.46 nM
Outline: (§1)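 IC50 values are binned (A: <30 nM, B: <50 nM, C: <100 nM, D: <200 nM, E: <400 nM) from EZ-Cytox read-outs. Cells were exposed to compound for 5 days, then shaken 3 min and absorbance taken at […].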

PLK1 = target: T1, PLK1 (Homo sapiens, UniProt P53350); assay: Luciferase assay for PLK1 in HeLa LgBit (Plk1-HiBit KI) cell line; settings: 300 nM compound, luminescence after 9 hours
T1 construct: endogenous in cells; host or cells: HeLa LgBit (Plk1-HiBit KI): HeLa stably expressing LgBit, with a CRISPR/Cas9 knock-in of HiBit at the endogenous PLK1 locus
T1 sequence (P53350 whole entry): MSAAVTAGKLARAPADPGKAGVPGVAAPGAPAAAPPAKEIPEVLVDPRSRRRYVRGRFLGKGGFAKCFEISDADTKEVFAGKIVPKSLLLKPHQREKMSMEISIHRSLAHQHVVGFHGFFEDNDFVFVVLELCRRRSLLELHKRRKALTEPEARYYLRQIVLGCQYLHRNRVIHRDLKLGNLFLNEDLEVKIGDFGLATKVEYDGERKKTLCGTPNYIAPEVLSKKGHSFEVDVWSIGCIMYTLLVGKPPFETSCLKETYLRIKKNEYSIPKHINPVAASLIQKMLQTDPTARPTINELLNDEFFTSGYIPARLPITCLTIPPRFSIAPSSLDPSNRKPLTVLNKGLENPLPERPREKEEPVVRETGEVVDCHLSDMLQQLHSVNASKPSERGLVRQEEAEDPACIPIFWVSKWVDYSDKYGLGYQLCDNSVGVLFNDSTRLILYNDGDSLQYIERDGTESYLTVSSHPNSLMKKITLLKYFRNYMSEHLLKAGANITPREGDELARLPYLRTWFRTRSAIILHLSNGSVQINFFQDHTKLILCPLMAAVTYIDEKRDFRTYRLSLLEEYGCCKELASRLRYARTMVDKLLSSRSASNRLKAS
Outline: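 Compounds (300 nM) were added with Endurazine to thymidine-synchronised cells (2 mM, 24 h block, then release and 18 h culture), and luminescence at 470-480 nm was followed live. Cells: HeLa stably expressing LgBit, HiBit knocked into native PLK1 C-terminus. Value: luminescence ratio versus DMSO control.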

NCI-H69 cell line = assay: Cell viability assay for NCI-H69 cell line (EZ-Cytox); settings: Homo sapiens, NCI-H69, 120 h; H69 cells, 5 days, 3000 nM to 0.46 nM
Outline: as §1

SMILES	IC50 (MRC-5 cell line)	IC50 (NCI-H526 cell line)	Activity: ratio of the luminescence value of compound treatment group to DMSO treatment group (PLK1)	IC50 (NCI-H69 cell line)
COc1cc(C(=O)NN2CCC(CCN3CCN(c4cc(C)c(NC5CCC(=O)NC5=O)cc4F)CC3)CC2)ccc1Nc1ncc2c(n1)N(C1CCCC1)CC(F)(F)C(=O)N2C (stereo not shown) [Compound 74, 4-((9-cyclopentyl-7,7-difluoro-5-methyl-6-oxo-6,7,8,9-tetrahydro-5H-pyrimido[4,5-b][1,4]diazepin-2-yl)amino)-N-(4-(2-(4-(4-((2,6-dioxopiperidin-3-yl)amino)-2-fluoro-5-methylphenyl)piperazin-1-yl)ethyl)piperidin-1-yl)-3-methoxybenzamide]	> 10000 nM	< 30 nM	+++ (+++: <0.3)	< 30 nM
COc1cc(C(=O)NN2CCC(CCN3CCN(c4cc(C)c(NC5CCC(=O)NC5=O)cc4F)CC3)CC2)ccc1Nc1ncc2c(n1)N(C(C)C)CC(F)(F)C(=O)N2C (stereo not shown) [Compound 75, 4-((7,7-difluoro-9-isopropyl-5-methyl-6-oxo-6,7,8,9-tetrahydro-5H-pyrimido[4,5-b][1,4]diazepin-2-yl)amino)-N-(4-(2-(4-(4-((2,6-dioxopiperidin-3-yl)amino)-2-fluoro-5-methylphenyl)piperazin-1-yl)ethyl)piperidin-1-yl)-3-methoxybenzamide]	> 10000 nM	< 30 nM	+++ (+++: <0.3)	< 30 nM
COc1cc(C(=O)NN2CCC(CCN3CCN(c4cc(C#N)c(NC5CCC(=O)NC5=O)cc4F)CC3)CC2)ccc1Nc1ncc2c(n1)N(C1CCCC1)CC(F)(F)C(=O)N2C (stereo not shown) [Compound 76, N(4-(2-(4-(5-cyano-4-((2,6-dioxopiperidin-3-yl)amino)-2-fluorophenyl)piperazin-1-yl)ethyl)piperidin-1-yl)-4-((9-cyclopentyl-7,7-difluoro-5-methyl-6-oxo-6,7,8,9-tetrahydro-5H-pyrimido[4,5-b][1,4]diazepin-2-yl)amino)-3-methoxybenzamide]	> 10000 nM	< 30 nM	++ (++: <0.5)	< 30 nM
COc1cc(C(=O)NN2CCC(CCN3CCN(c4ccc(NC5CCC(=O)NC5=O)nc4)CC3)CC2)ccc1Nc1ncc2c(n1)N(C1CCCC1)CC(F)(F)C(=O)N2C (stereo not shown) [Compound 77, 4-((9-cyclopentyl-7,7-difluoro-5-methyl-6-oxo-6,7,8,9-tetrahydro-5H-pyrimido[4,5-b][1,4]diazepin-2-yl)amino)-N-(4-(2-(4-(6-((2,6-dioxopiperidin-3-yl)amino)pyridin-3-yl)piperazin-1-yl)ethyl)piperidin-1-yl)-3-methoxybenzamide]	> 10000 nM	< 30 nM	++ (++: <0.5)	< 30 nM
